What all share (assay): whole-cell patch clamp, HEK293T cells expressing mutant
Common to all, as to assay type: cell-based
Common to all, as to conditions: for relative responsiveness: 100 µM agonist 2 s, relative to ATP (100%)
(Patch clamp records ionic current or voltage across a cell membrane.)

In one test the target is T1, rP2X4R H286A mutant (Rattus norvegicus, UniProt P51577, H286A).
T1 construct: expressed in transfected cells; host or cells: HEK293T
T1 sequence (P51577 1-388 H286A): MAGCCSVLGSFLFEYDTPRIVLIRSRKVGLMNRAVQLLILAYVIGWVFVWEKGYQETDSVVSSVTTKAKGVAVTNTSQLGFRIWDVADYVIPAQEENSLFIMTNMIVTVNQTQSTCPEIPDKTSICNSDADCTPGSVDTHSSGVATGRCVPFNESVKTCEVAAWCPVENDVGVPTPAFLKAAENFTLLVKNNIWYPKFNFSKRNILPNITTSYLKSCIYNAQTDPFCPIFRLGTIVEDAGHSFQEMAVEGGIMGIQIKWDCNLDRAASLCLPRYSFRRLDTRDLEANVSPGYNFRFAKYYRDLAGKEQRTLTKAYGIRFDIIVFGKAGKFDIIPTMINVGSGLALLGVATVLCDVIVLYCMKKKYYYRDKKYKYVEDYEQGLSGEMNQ

In a further test the target is T2, rP2X4R Y213A mutant (Rattus norvegicus, UniProt P51577, Y213A).
T2 construct: expressed in transfected cells; host or cells: HEK293T
T2 sequence (P51577 1-388 Y213A): T1 sequence (P51577 1-388 H286A) with Y213A, A286H

The next test has as its target T3, rP2X4R G291A mutant (Rattus norvegicus, UniProt P51577, G291A).
T3 construct: expressed in transfected cells; host or cells: HEK293T
T3 sequence (P51577 1-388 G291A): T1 sequence (P51577 1-388 H286A) with A286H, G291A

Where [1] appears, read: 100 µM ATP 60 s, biexponential fit.
The mark [2] stands for this setting: contribution of τdes2, 100 µM ATP 60 s.
Setting [3] is: decay after removal of 1 or 3 µM ATP, 3 µM IVM.
[4] abbreviates: naïve receptors, 2–5 s application.
The mark [5] stands for this setting: 3 µM IVM 4-6 min vs IVM-untreated.

Positions count from the first letter of the chain named.

By EC50 is commonly meant the concentration at which the effect is half-maximal. A lower EC50 goes with higher potency in that assay.

Turning to “2′(3′-O-(4-Benzoylbenzoyl)adenosine 5′-triphosphate [BzATP]”, the relative responsiveness stood at 25.6±4.0% at rP2X4R H286A mutant, 27.3±5.5% on rP2X4R Y213A mutant and 53.0±4.0 % at rP2X4R G291A mutant.
For `CSc1nc(N)c2ncn([C@@H]3O[C@H](COP(=O)(O)OP(=O)(O)OP(=O)(O)O)[C@@H](O)[C@H]3O)c2n1` [2-MeS-ATP, 2-(Methylthio)adenosine 5′-triphosphate], in that order: 67.9±1.2%, 63.8±16.4% and 36.9±8.8 %.
Regarding `Nc1ncnc2c1ncn2[C@@H]1O[C@H](COP(=O)(O)OP(=O)(O)OP(=O)(O)O)[C@@H](O)[C@H]1O` [ATP], the τdes1 on rP2X4R H286A mutant (setting [1]) was 4.0 ± 0.8 s; on rP2X4R Y213A mutant (setting [1]), 3.0 ± 0.3 s; at rP2X4R G291A mutant (setting [1]), 2.0 ± 0.5 s. The results for the τdes2 at rP2X4R H286A mutant (setting [1]), on rP2X4R Y213A mutant (setting [1]) and on rP2X4R G291A mutant (setting [1]) were 16.2 ± 1.6 s, 12.4 ± 1.6 s and 16.5 ± 2.7 s, respectively. Besides, the “Imax+IVM” value at rP2X4R H286A mutant (ATP after 3 µM IVM 4-6 min) is recorded as 4.2 ± 0.7 nA; on rP2X4R Y213A mutant (ATP after 3 µM IVM 4-6 min) it was 3.1 ± 0.2 nA; at rP2X4R G291A mutant (ATP after 3 µM IVM 4-6 min) it was 3.3 ± 0.4 nA. The “A2 /(A1+A2)” value on rP2X4R H286A mutant (setting [2]) is reported as 55 ± 5%; on rP2X4R Y213A mutant (setting [2]) it was 61 ± 6%; on rP2X4R G291A mutant (setting [2]) it was 69 ± 12%. In addition, the figures for the “τoff +IVM” value at rP2X4R H286A mutant (setting [3]), on rP2X4R Y213A mutant (setting [3]) and at rP2X4R G291A mutant (setting [3]) were 12 ± 2.1 s, 18 ± 4.3 s and 13 ± 1.0 s, respectively. For the same molecule, the results for the concentration giving a half-maximal response (EC50) on rP2X4R H286A mutant (setting [4]), on rP2X4R Y213A mutant (setting [4]) and on rP2X4R G291A mutant (setting [4]) were 20 ± 2.9 µM, 6 ± 0.9 µM and 15 ± 3.8 µM, respectively. For the same molecule, the τdes at rP2X4R H286A mutant (weighted, 100 µM ATP 60 s) amounted to 11 ± 1.4 s; on rP2X4R Y213A mutant (weighted, 100 µM ATP 60 s) it was 8.5 ± 0.8 s; on rP2X4R G291A mutant (weighted, 100 µM ATP 60 s), 13 ± 2.7 s. For the same molecule, the results for the Imax at rP2X4R Y213A mutant (100–1000 µM ATP) and on rP2X4R G291A mutant (100–1000 µM ATP) were 2.2 ± 0.4 nA and 2.1 ± 0.2 nA, respectively.
As for `Nc1ncnc2c1ncn2[C@@H]1O[C@H](CO[P@](=O)(O)O[P@](=O)(O)O[P@@](=O)(O)S)[C@@H](O)[C@H]1O` [ATPγS, Adenosine 5′-(γ-thio)triphosphate], the relative responsiveness was 39.8±6.2% at rP2X4R H286A mutant, 37.1±5.5% at rP2X4R Y213A mutant and 31.6±6.1 % at rP2X4R G291A mutant.
In the case of `CC[C@H](C)[C@H]1O[C@]2(CC[C@@H]1C)C[C@@H]1C[C@@H](C/C=C(\C)[C@@H](O[C@H]3C[C@H](OC)[C@@H](O[C@H]4C[C@H](OC)[C@@H](O)[C@H](C)O4)[C@H](C)O3)[C@@H](C)/C=C/C=C3\CO[C@@H]4[C@H](O)C(C)=C[C@@H](C(=O)O1)[C@]34O)O2` [IVM, ivermectin], the figures for the “Fold incr. Imax” value at rP2X4R H286A mutant (setting [5]), at rP2X4R Y213A mutant (setting [5]) and at rP2X4R G291A mutant (setting [5]) were 1.9 ± 0.3 fold, 1.4 ± 0.1 fold and 1.4 ± 0.02 fold, respectively.
For the molecule `Nc1ncnc2c1ncn2C1OC(COP(=O)(O)CP(=O)(O)OP(=O)(O)O)C(O)C1O` (stereo not drawn) [α,β-meATP, α,β-methyleneadenosine 5′-triphosphate], the relative responsiveness on rP2X4R H286A mutant was determined as 30.0±6.8%; on rP2X4R Y213A mutant, 31.3±6.7%; at rP2X4R G291A mutant, 2.8±0.5 %.

These data come from paper PMC4232510, “Identification of Functionally Important Residues of the Rat P2X4 Receptor by Alanine Scanning Mutagenesis of the Dorsal Fin and Left Flipper Domains” (PLoS ONE, 2014).
